Measurements published in patent publication US11672265B2, “Egg replacement containing euglena-derived components” (NOBLEGEN, INC., priority 2019, dated 2023).
Read-outs that look alike come from different tables or passages of the source.

What was measured:
[1] = test system: microbial growth in non-heat treated biomass; type: cell-based, yeast, mold, bacteria; conditions: refrigerator (4° C.) 5 days, CP 1000 ppm, SB + PS 1000 ppm each, BV 0.25% (w/w)
Description: A biomass stored in the refrigerator at harvested pH (pH 2.75) for 2 days after harvest was chosen for microbial analysis. Four different pH conditions were used for non-heat treated biomass storage, pH 3, 4.5, 5 and 7. Three different antimicrobials (see Table 19 for the names and usage levels) were added to biomass at each pH selected. Control without any antimicrobial agents were also stored at different selected pHs. All the biomass samples were stored in a 4° C. refrigerator for 5 days and a TSA plate assay was done to see the presence of any microbes at the 5 day mark.
Samples without any microbial growth were considered for further storage study. After 16 days of storage, a TSA plating was done on all the heat treated biomass and non-heated biomass with SB+PS at pH 3, 4.5 and 5.

[2] = test system: microbes in fresh biomass; assay: Treatment of fresh biomass with nisin, TSA plates; type: cell-based, bacteria and yeast
Description: Method: Obtained fresh biomass and was washed 1 time with 2.5 times water. The biomass was diluted to 10% (solid content-10.36 w/w %, initial pH was pH 3.35 and the pH was adjusted to 7.2 using 2.5 M NaOH. […] Similarly, about the same amount of biomass without Nisin was also left at both conditions.

CCC(=O)[O-].CCC(=O)[O-].[Ca+2] [CP, Calcium propionate]
Microbial growth observed in non-heat treated biomass with antimicrobials ([1]; pH 3): yeast | Microbial growth observed in non-heat treated biomass with antimicrobials ([1]; pH 4.5): yeast

nisin
Presence of microbes in biomass treated with nisin ([2]; 70 ppm nisin, biomass pH 7.2, room temperature or 4° C., up to 24 hours): Presence of microbes were found at all storage conditions irrespective of the presence of nisin or storage time | Prevention of growth of microorganisms in fresh biomass or wet protein concentrate ([2]; 75 ppm of Nisin (conclusion)): will not be able to prevent the growth of microorganisms
